Assay results reported in PubChem BioAssay AID1963845 (Molecular Pharmacology Branch, DTP, NCI, 2024).

Tested on: 429239-143-T-J1-PDC complex spheroid viability
Test: Anticancer human tumor 429239-143-T-J1-PDC patient-derived small cell lung carcinoma cell line growth inhibition [POLQ]
Conditions: for IC50: curve of first compound; for viability, T/C: stronger effect = lower value
Procedure, shortened: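 Three-cell-type spheroids modelling solid tumor plus stroma served as the readout system; POL inhibitors were tested individually and in combination, concentration ranges set by clinical Cmax where known.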

[1] = second compound 0.0316 µM, first compound 0.0316 µM
[2] = second compound 0.0316 µM, first compound 0.1 µM
[3] = second compound 0.0316 µM, first compound 0.316 µM
[4] = second compound 0.0316 µM, first compound 1 µM
[5] = second compound 0.0316 µM, first compound 3.16 µM
[6] = second compound 0.0316 µM, first compound 10 µM
[7] = second compound 0.1 µM, first compound 0.0316 µM
[8] = second compound 0.1 µM, first compound 0.1 µM
[9] = second compound 0.1 µM, first compound 0.316 µM
[10] = second compound 0.1 µM, first compound 1 µM
[11] = second compound 0.1 µM, first compound 3.16 µM
[12] = second compound 0.1 µM, first compound 10 µM
[13] = second compound 0.316 µM, first compound 0.0316 µM
[14] = second compound 0.316 µM, first compound 0.1 µM
[15] = second compound 0.316 µM, first compound 0.316 µM
[16] = second compound 0.316 µM, first compound 1 µM
[17] = second compound 0.316 µM, first compound 3.16 µM
[18] = second compound 0.316 µM, first compound 10 µM
[19] = second compound 1 µM, first compound 0.0316 µM
[20] = second compound 1 µM, first compound 0.1 µM
[21] = second compound 1 µM, first compound 0.316 µM
[22] = second compound 1 µM, first compound 1 µM
[23] = second compound 1 µM, first compound 3.16 µM
[24] = second compound 1 µM, first compound 10 µM
[25] = second compound 3.16 µM, first compound 0.0316 µM
[26] = second compound 3.16 µM, first compound 0.1 µM
[27] = second compound 3.16 µM, first compound 0.316 µM
[28] = second compound 3.16 µM, first compound 1 µM
[29] = second compound 3.16 µM, first compound 3.16 µM
[30] = second compound 3.16 µM, first compound 10 µM
[31] = second compound 10 µM, first compound 0.0316 µM
[32] = second compound 10 µM, first compound 0.1 µM
[33] = second compound 10 µM, first compound 0.316 µM
[34] = second compound 10 µM, first compound 1 µM
[35] = second compound 10 µM, first compound 3.16 µM
[36] = second compound 10 µM, first compound 10 µM
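Also: luminescence signal used as surrogate measure of viable cells; spheroids exposed to compounds for seven days before readout.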
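For viability, T/C in this document: 100% = DMSO vehicle control viability as luminescence relative to vehicle.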

O=C(c1cc(Cc2n[nH]c(=O)c3ccccc23)ccc1F)N1CCN(C(=O)C2CC2)CC1 + Cc1cccc(N(C)C(=O)C2C(O)CCN2c2nc(C)cc(C(F)(F)F)c2C#N)c1
IC50 (second compound 0.0316 µM): 1.57 µM
IC50 (second compound 0.1 µM): 1.46 µM
IC50 (second compound 0.316 µM): 1.65 µM
IC50 (second compound 1 µM): 1.75 µM
IC50 (second compound 3.16 µM): 1.88 µM
IC50 (second compound 10 µM): 1.5 µM
viability, T/C [1]: 104%
viability, T/C [2]: 84.5%
viability, T/C [3]: 82.9%
viability, T/C [4]: 65.4%
viability, T/C [5]: 28.9%
viability, T/C [6]: 19.9%
viability, T/C [7]: 85.1%
viability, T/C [8]: 81.3%
viability, T/C [9]: 78%
viability, T/C [10]: 55.8%
viability, T/C [11]: 35.3%
viability, T/C [12]: 17.9%
viability, T/C [13]: 94.2%
viability, T/C [14]: 82.5%
viability, T/C [15]: 81.9%
viability, T/C [16]: 61.3%
viability, T/C [17]: 35%
viability, T/C [18]: 18.7%
viability, T/C [19]: 83.5%
viability, T/C [20]: 78.9%
viability, T/C [21]: 80.6%
viability, T/C [22]: 63.4%
viability, T/C [23]: 35.5%
viability, T/C [24]: 18.6%
viability, T/C [25]: 92.6%
viability, T/C [26]: 78.7%
viability, T/C [27]: 81.5%
viability, T/C [28]: 66.3%
viability, T/C [29]: 36.5%
viability, T/C [30]: 21%
viability, T/C [31]: 89.5%
viability, T/C [32]: 91.9%
viability, T/C [33]: 70.9%
viability, T/C [34]: 58.2%
viability, T/C [35]: 37%
viability, T/C [36]: 18.7%

O=C(Nc1ccc(O)c(NS(=O)(=O)c2ccc(F)cc2)c1)c1ccc(-c2ccccc2)cc1 + COC1C(OC(N)=O)C(O)C(Oc2ccc3c(O)c(NC(=O)c4ccc(O)c(CC=C(C)C)c4)c(=O)oc3c2C)OC1(C)C
IC50 (second compound 0.0316 µM): > 10 µM
IC50 (second compound 0.1 µM): > 10 µM
IC50 (second compound 0.316 µM): > 10 µM
IC50 (second compound 1 µM): > 10 µM
IC50 (second compound 3.16 µM): > 10 µM
IC50 (second compound 10 µM): > 10 µM
viability, T/C [1]: 110%
viability, T/C [2]: 97.1%
viability, T/C [3]: 108%
viability, T/C [4]: 105%
viability, T/C [5]: 99%
viability, T/C [6]: 66.7%
viability, T/C [7]: 90.2%
viability, T/C [8]: 92.9%
viability, T/C [9]: 99.6%
viability, T/C [10]: 121%
viability, T/C [11]: 113%
viability, T/C [12]: 61.3%
viability, T/C [13]: 101%
viability, T/C [14]: 83.7%
viability, T/C [15]: 95.2%
viability, T/C [16]: 105%
viability, T/C [17]: 106%
viability, T/C [18]: 64.4%
viability, T/C [19]: 104%
viability, T/C [20]: 92.8%
viability, T/C [21]: 93%
viability, T/C [22]: 90.8%
viability, T/C [23]: 107%
viability, T/C [24]: 59.4%
viability, T/C [25]: 98.9%
viability, T/C [26]: 90%
viability, T/C [27]: 100%
viability, T/C [28]: 98.7%
viability, T/C [29]: 93.3%
viability, T/C [30]: 76.9%
viability, T/C [31]: 99.1%
viability, T/C [32]: 85.9%
viability, T/C [33]: 99%
viability, T/C [34]: 102%
viability, T/C [35]: 113%
viability, T/C [36]: 68.6%

COc1cc2cc(C(=O)CCC(=O)O)sc2cc1OC + Cc1cccc(N(C)C(=O)C2C(O)CCN2c2nc(C)cc(C(F)(F)F)c2C#N)c1
IC50 (second compound 0.0316 µM): > 10 µM
IC50 (second compound 0.1 µM): > 10 µM
IC50 (second compound 0.316 µM): > 10 µM
IC50 (second compound 1 µM): > 10 µM
IC50 (second compound 3.16 µM): > 10 µM
IC50 (second compound 10 µM): > 10 µM
viability, T/C [1]: 103%
viability, T/C [2]: 114%
viability, T/C [3]: 97.8%
viability, T/C [4]: 106%
viability, T/C [5]: 109%
viability, T/C [6]: 89.5%
viability, T/C [7]: 96.1%
viability, T/C [8]: 97.9%
viability, T/C [9]: 109%
viability, T/C [10]: 99.4%
viability, T/C [11]: 94.4%
viability, T/C [12]: 101%
viability, T/C [13]: 109%
viability, T/C [14]: 118%
viability, T/C [15]: 99.9%
viability, T/C [16]: 106%
viability, T/C [17]: 96%
viability, T/C [18]: 90.1%
viability, T/C [19]: 99.8%
viability, T/C [20]: 99.1%
viability, T/C [21]: 94.1%
viability, T/C [22]: 115%
viability, T/C [23]: 117%
viability, T/C [24]: 91.2%
viability, T/C [25]: 108%
viability, T/C [26]: 96.3%
viability, T/C [27]: 103%
viability, T/C [28]: 105%
viability, T/C [29]: 115%
viability, T/C [30]: 101%
viability, T/C [31]: 104%
viability, T/C [32]: 91.3%
viability, T/C [33]: 99.3%
viability, T/C [34]: 120%
viability, T/C [35]: 110%
viability, T/C [36]: 97.7%

CC1COCCN1c1cc(-c2ccnn2C)c2ccnc(-c3ccn[nH]3)c2n1 (stereo not given) + Cc1cccc(N(C)C(=O)C2C(O)CCN2c2nc(C)cc(C(F)(F)F)c2C#N)c1
IC50 (second compound 0.0316 µM): 0.135 µM
IC50 (second compound 0.1 µM): 0.121 µM
IC50 (second compound 0.316 µM): 0.128 µM
IC50 (second compound 1 µM): 0.0885 µM
IC50 (second compound 3.16 µM): 0.0909 µM
IC50 (second compound 10 µM): 0.106 µM
viability, T/C [1]: 88.1%
viability, T/C [2]: 54.9%
viability, T/C [3]: 34.8%
viability, T/C [4]: 15.2%
viability, T/C [5]: 9.81%
viability, T/C [6]: 10.9%
viability, T/C [7]: 83.7%
viability, T/C [8]: 54.4%
viability, T/C [9]: 26.7%
viability, T/C [10]: 11.2%
viability, T/C [11]: 9.92%
viability, T/C [12]: 10.2%
viability, T/C [13]: 82.1%
viability, T/C [14]: 55.4%
viability, T/C [15]: 29.9%
viability, T/C [16]: 12.9%
viability, T/C [17]: 9.82%
viability, T/C [18]: 8.22%
viability, T/C [19]: 86.3%
viability, T/C [20]: 44.1%
viability, T/C [21]: 28.4%
viability, T/C [22]: 13.8%
viability, T/C [23]: 11.9%
viability, T/C [24]: 9.85%
viability, T/C [25]: 77.9%
viability, T/C [26]: 44.1%
viability, T/C [27]: 35%
viability, T/C [28]: 16.1%
viability, T/C [29]: 11.2%
viability, T/C [30]: 10.4%
viability, T/C [31]: 77.4%
viability, T/C [32]: 50.7%
viability, T/C [33]: 30.7%
viability, T/C [34]: 17.7%
viability, T/C [35]: 11.7%
viability, T/C [36]: 9.99%

COc1cccc2c1C(=O)c1c(O)c3c(c(O)c1C2=O)CC(O)(C(=O)CO)CC3OC1CC(N)C(O)C(C)O1 (stereo not given) + Nc1ccc(C#CCN(C(=O)Cc2ncc(C(F)(F)F)cc2C(F)(F)F)c2ccc(F)cc2)nn1
IC50 (second compound 0.0316 µM): 0.0757 µM
IC50 (second compound 0.1 µM): 0.0816 µM
IC50 (second compound 0.316 µM): 0.109 µM
IC50 (second compound 1 µM): 0.0739 µM
IC50 (second compound 3.16 µM): 0.07 µM
IC50 (second compound 10 µM): 0.0679 µM
viability, T/C [1]: 85.2%
viability, T/C [2]: 38.8%
viability, T/C [3]: 5.33%
viability, T/C [4]: 1.05%
viability, T/C [5]: 0.09%
viability, T/C [6]: 0.32%
viability, T/C [7]: 83.5%
viability, T/C [8]: 42.8%
viability, T/C [9]: 7.41%
viability, T/C [10]: 0.82%
viability, T/C [11]: 0.06%
viability, T/C [12]: 0.05%
viability, T/C [13]: 87.3%
viability, T/C [14]: 53.6%
viability, T/C [15]: 6.68%
viability, T/C [16]: 0.74%
viability, T/C [17]: 0.05%
viability, T/C [18]: 0.19%
viability, T/C [19]: 83.1%
viability, T/C [20]: 38.2%
viability, T/C [21]: 5.31%
viability, T/C [22]: 0.69%
viability, T/C [23]: 0.1%
viability, T/C [24]: 0.83%
viability, T/C [25]: 83.9%
viability, T/C [26]: 34.8%
viability, T/C [27]: 5.88%
viability, T/C [28]: 0.94%
viability, T/C [29]: 1.4%
viability, T/C [30]: 0.16%
viability, T/C [31]: 80.7%
viability, T/C [32]: 34.4%
viability, T/C [33]: 5.07%
viability, T/C [34]: 0.55%
viability, T/C [35]: 1.2%
viability, T/C [36]: 0.18%
